Assay results: patent publication US12466822B2, “Heterocyclic compounds as immunomodulators” (Incyte Corporation, priority 2016, dated 2025)

Target: T1, PD-1/PD-L1 protein/protein interaction (recombinant human PD-L1 protein (19-238), recombinant human PD-1 protein (25-167)) (Homo sapiens, UniProt Q9NZQ7)
T1 construct: Recombinant human PD-L1 protein (19-238) with a His-tag at the C-terminus; purchased AcroBiosystems PD1-H5229 (PD-L1-His); PD1-H5257 (PD-1-Fc)
Experiment: PD-1/PD-L1 Homogeneous Time-Resolved Fluorescence (HTRF) Binding Assay
Details: 25° C., PBS buffer (pH 7.4), 40 minutes preincubation with inhibitors
Summary of the method: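 Fc-tagged human PD-1 (25-167) and His-tagged PD-L1 (19-238), listed as […] and 10 nM final, preincubated 40 min with inhibitors in PBS pH 7.4, 0.05% Tween-20, 0.1% BSA, 1% DMSO, 25 °C. Eu anti-IgG/APC anti-His added, 60 min, 665/620 nm HTRF ratio; IC50 fitted from percent control activity.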

T1 sequence (Q9NZQ7 19-238): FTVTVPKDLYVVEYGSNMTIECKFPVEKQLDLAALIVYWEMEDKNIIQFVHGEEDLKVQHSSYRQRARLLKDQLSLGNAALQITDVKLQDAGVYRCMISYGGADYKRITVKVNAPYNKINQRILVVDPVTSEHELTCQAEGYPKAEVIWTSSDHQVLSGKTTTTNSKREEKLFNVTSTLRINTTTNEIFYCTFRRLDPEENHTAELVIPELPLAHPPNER

| SMILES | IC50 |
| --- | --- |
| Cc1c(Nc2nccc3cc(CN4CC[C@@H](O)C4)cnc23)cccc1-c1cccc(Nc2nccc3cc(CN4CC(C(=O)O)C4)cnc23)c1Cl [Example 80, (R)-1-((8-((2-chloro-3′-((3-((3-hydroxypyrrolidin-1-yl)methyl)-1,7-naphthyridin-8-yl)amino)-2′-methyl-[1,1′-biphenyl]-3-yl)amino)-1,7-naphthyridin-3-yl)methyl)azetidine-3-carboxylic acid] | ≤ 0.01 µM |
| Cc1c(Nc2nccc3cc(CN4CC[C@@H](O)C4)cnc23)cccc1-c1cccc(Nc2nccc3cc(CN4CC[C@@H](C(=O)O)C4)cnc23)c1C [Example 9, (R)-1-((8-((3′-((3-(((R)-3-hydroxypyrrolidin-1-yl)methyl)-1,7-naphthyridin-8-yl)amino)-2,2′-dimethyl-[1,1′-biphenyl]-3-yl)amino)-1,7-naphthyridin-3-yl)methyl)pyrrolidine-3-carboxylic acid] | ≤ 0.01 µM |
| Cc1c(Nc2nccc3cc(CN4CC[C@@H](O)C4)cnc23)cccc1-c1cccc(-c2nc3c(s2)CNCC3)c1C [Example 35, (R)-1-((8-((2,2′-dimethyl-3′-(4,5,6,7-tetrahydrothiazolo[5,4-c]pyridin-2-yl)-[1,1′-biphenyl]-3-yl)amino)-1,7-naphthyridin-3-yl)methyl)pyrrolidin-3-ol] | ≤ 0.01 µM |
| Cc1c(Nc2nccc3cc(CN4CC[C@@H](O)C4)cnc23)cccc1-c1cccc(NC(=O)c2ccc(CN3CC[C@@H](O)C3)cn2)c1Cl [Example 6, N-(2-chloro-3′-((3-(((R)-3-hydroxypyrrolidin-1-yl)methyl)-1,7-naphthyridin-8-yl)amino)-2′-methyl-[1,1′-biphenyl]-3-yl)-5-(((R)-3-hydroxypyrrolidin-1-yl)methyl)picolinamide] | ≤ 0.01 µM |
| Cc1c(Nc2nccc3cc(CN4CC[C@@H](O)C4)cnc23)cccc1-c1cccc(-c2nc3c(o2)CN(C(=O)CN(C)C)C3)c1C [Example 37, (R)-2-(dimethylamino)-1-(2-(3′-((3-((3-hydroxypyrrolidin-1-yl)methyl)-1,7-naphthyridin-8-yl)amino)-2,2′-dimethyl-[1,1′-biphenyl]-3-yl)-4,6-dihydro-5H-pyrrolo[3,4-d]oxazol-5-yl)ethan-1-one] | ≤ 0.01 µM |
| Cn1c(C(=O)Nc2cccc(-c3cccc(Nc4nccc5cc(CN6CC[C@@H](O)C6)cnc45)c3Cl)c2Cl)nc2c1CCN(CC[C@H]1CC[C@H](C(=O)O)CC1)C2 [Example 65, Trans-4-(2-(2-(2,2′-dichloro-3′-(3-(((R)-3-hydroxypyrrolidin-1-yl)methyl)-1,7-naphthyridin-8-ylamino)biphenyl-3-ylcarbamoyl)-1-methyl-6,7-dihydro-1H-imidazo[4,5-c]pyridin-5(4H)-yl)ethyl)cyclohexanecarboxylic acid] | ≤ 0.01 µM |
| Cc1c(Nc2nccc3cc(CNCCO)cnc23)cccc1-c1cccc(Nc2nccc3cc(CN4CC[C@@H](C(=O)O)C4)cnc23)c1C [Example 11, (R)-1-((8-((3′-((3-(((2-hydroxyethyl)amino)methyl)-1,7-naphthyridin-8-yl)amino)-2,2′-dimethyl-[1,1′-biphenyl]-3-yl)amino)-1,7-naphthyridin-3-yl)methyl)pyrrolidine-3-carboxylic acid] | ≤ 0.01 µM |
| CCN(C)CC(=O)N1Cc2nc(-c3cccc(-c4cccc(Nc5nccc6cc(CN7CC8CC7CC8C(=O)O)cnc56)c4Cl)c3C)sc2C1 (stereo not shown) [Example 94, 2-((8-(2-chloro-3′-(5-(2-(ethyl(methyl)amino)acetyl)-5,6-dihydro-4H-pyrrolo[3,4-d]thiazol-2-yl)-2′-methylbiphenyl-3-ylamino)-1,7-naphthyridin-3-yl)methyl)-2-azabicyclo[2.2.1]heptane-5-carboxylic acid] | ≤ 0.01 µM |

More lines, now with the values ahead:

| IC50 | SMILES |
| --- | --- |
| ≤ 0.01 µM | Cc1c(Nc2nccc3cc(CN4CC[C@@](C)(O)C4)cnc23)cccc1-c1cccc(NC(=O)c2nc3c(n2C)CCN(C[C@H]2CC[C@@H](C(=O)O)CC2)C3)c1Cl [Example 56, cis 4-((2-(2-chloro-3′-(3-(((R)-3-hydroxy-3-methylpyrrolidin-1-yl)methyl)-1,7-naphthyridin-8-ylamino)-2′-methylbiphenyl-3-ylcarbamoyl)-1-methyl-6,7-dihydro-1H-imidazo[4,5-c]pyridin-5(4H)-yl)methyl)cyclohexanecarboxylic acid] |
| ≤ 0.01 µM | Cc1c(Nc2nccc3cc(CN4CC[C@H](O)C4)cnc23)cccc1-c1cccc(NC(=O)c2nc3c(n2C)CCN(C)C3)c1Cl [Example 32, (S)—N-(2-chloro-3′-(3-((3-hydroxypyrrolidin-1-yl)methyl)-1,7-naphthyridin-8-ylamino)-2′-methylbiphenyl-3-yl)-1,5-dimethyl-4,5,6,7-tetrahydro-1H-imidazo[4,5-c]pyridine-2-carboxamide] |
| ≤ 0.01 µM | Cc1c(Nc2nccc3cc(CN[C@H](C)CO)cnc23)cccc1-c1cccc(NC(=O)c2nc3c(n2C)CCN(CC[C@H]2CC[C@H](C(=O)O)CC2)C3)c1Cl [Example 59, trans 4-(2-(2-(2-chloro-3′-(3-(((R)-1-hydroxypropan-2-ylamino)methyl)-1,7-naphthyridin-8-ylamino)-2′-methylbiphenyl-3-ylcarbamoyl)-1-methyl-6,7-dihydro-1H-imidazo[4,5-c]pyridin-5(4H)-yl)ethyl)cyclohexanecarboxylic acid] |
| ≤ 0.01 µM | Cc1c(Nc2nccc3cc(CN4CC[C@@H](O)C4)cnc23)cccc1-c1cccc(Nc2nccc3cc(CN4CC[C@@H](O)C4)cnc23)c1C [Example 20, (3R,3′R)-1,1′-((((2,2′-dimethyl-[1,1′-biphenyl]-3,3′-diyl)bis(azanediyl))bis(1,7-naphthyridine-8,3-diyl))bis(methylene))bis(pyrrolidin-3-ol)] |
| ≤ 0.01 µM | O[C@@H]1CCN(Cc2cnc3c(Nc4cccc(-c5cccc(Nc6nccc7cc(CN8CC[C@@H](O)C8)cnc67)c5Cl)c4Cl)nccc3c2)C1 [Example 22, (3R,3′R)-1,1′-((((2,2′-dichloro-[1,1′-biphenyl]-3,3′-diyl)bis(azanediyl))bis(1,7-naphthyridine-8,3-diyl))bis(methylene))bis(pyrrolidin-3-ol)] |
| ≤ 0.01 µM | Cc1c(Nc2nccc3cc(CN4CC[C@@H](O)C4)cnc23)cccc1-c1cccc(Nc2ncnc3cc(CNC[C@@H](C)O)cnc23)c1C [Example 29, (R)-1-((8-(3′-(7-(((R)-2-hydroxypropylamino)methyl)pyrido[3,2-d]pyrimidin-4-ylamino)-2,2′-dimethylbiphenyl-3-ylamino)-1,7-naphthyridin-3-yl)methyl)pyrrolidin-3-ol] |
| ≤ 0.01 µM | Cc1c(Nc2nccc3cc(CN4CC[C@@H](O)C4)cnc23)cccc1-c1cccc(NC(=O)c2nc3c(n2C)CCN(C[C@H]2CC[C@@H](C(=O)O)CC2)C3)c1Cl [Example 48, cis-4-((2-(2-chloro-3′-(3-(((R)-3-hydroxypyrrolidin-1-yl)methyl)-1,7-naphthyridin-8-ylamino)-2′-methylbiphenyl-3-ylcarbamoyl)-1-methyl-6,7-dihydro-1H-imidazo[4,5-c]pyridin-5(4H)-yl)methyl)cyclohexanecarboxylic acid] |
| ≤ 0.01 µM | Cc1c(Nc2nccc3cc(CN4CC[C@@H](O)C4)cnc23)cccc1-c1cccc(NC(=O)c2nc3c(n2C)CCN(C[C@H]2CC[C@H](C(=O)O)CC2)C3)c1Cl [Example 47, trans-4-((2-(2-chloro-3′-(3-(((R)-3-hydroxypyrrolidin-1-yl)methyl)-1,7-naphthyridin-8-ylamino)-2′-methylbiphenyl-3-ylcarbamoyl)-1-methyl-6,7-dihydro-1H-imidazo[4,5-c]pyridin-5(4H)-yl)methyl)cyclohexanecarboxylic acid] |
